Molecules are shown by their SMILES.

In the assay the target is T1, Stearoyl-CoA desaturase (SCD) (Rattus norvegicus, UniProt P07308).
T1 construct: The rat liver microsomes were collected according to the procedure described in Ozols (1990) Methods Enzm, 182:225; from tissue
T1 sequence (P07308 1-358): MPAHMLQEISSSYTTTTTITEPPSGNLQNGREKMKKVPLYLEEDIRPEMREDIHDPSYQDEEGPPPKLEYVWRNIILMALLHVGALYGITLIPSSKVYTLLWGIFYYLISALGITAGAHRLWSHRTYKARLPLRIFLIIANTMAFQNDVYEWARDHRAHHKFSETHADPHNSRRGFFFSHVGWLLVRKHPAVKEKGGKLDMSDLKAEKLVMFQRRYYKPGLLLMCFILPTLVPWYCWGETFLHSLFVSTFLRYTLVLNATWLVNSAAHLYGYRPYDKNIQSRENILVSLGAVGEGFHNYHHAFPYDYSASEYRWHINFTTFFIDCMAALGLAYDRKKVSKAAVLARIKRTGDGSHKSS
The assay is described as follows: SCD assay in rat liver microsomes ([3H]stearoyl CoA desaturation, adapted from Talamo and Bloch). It is filed as biochemical. The conditions noted are these: rat liver microsomes 0.2 mg/ml final, 30 min preincubation, 45 min reaction, room temperature. An excerpt:
The identification of compounds of the invention as SCD inhibitors was readily accomplished using the SCD enzyme and microsomal assay procedure described in Talamo and Bloch (1969) Analytical Biochemistry 29:300-304.
The rat liver microsomes were collected according to the procedure described in Ozols (1990) Methods Enzm, 182:225.
Male Spraque Dawley Rats were placed on regimented fasting protocol for one week to stimulate SCD enzymatic activity. 48-hour periods were alternated between feeding and fasting to induce and down-regulate SCD activity with SCD activity being induced via carbohydrate rich diet prior to liver perfusion and collection.
The rats were anesthetized with Isoflurane inhalation anesthetic, the liver perfused with cold phosphate buffered saline (PBS), weighed, and chilled in cold homogenization buffer (250 mM sucrose, 10 mM Tris, 1 mM EDTA, pH 7.6).
The livers were finely minced and placed in homogenization tube. Homogenization buffer (40 mL) was added to the homogenization tube and the liver homogenized and centrifuged in a pre-chilled […] for 10 min at 4° C.
Following centrifugation, the supernatant was collected and the pellet removed and discarded. The supernatant was centrifuge at 10,000 G for 35 minutes. Following centrifugation, the supernatant was collect and the pellet discarded. The supernatant was then centrifuged in a pre-chilled 45-Ti rotor at 130,000 G (41,000 RPM) for 90 minutes at 4° C.
The supernatant was then aspirated off and the collected microsomal pellet washed in 25 mL of Glycerol PBS (1× PBS 7.4, 20% Glycerol) and resuspended in 4-5 volumes of Glycerol PBS.
The protein concentration of the microsomal preparation was determined by BCA assay (Pierce) and the microsomes were aliquoted and stored at −80° C.
Biobeads were ground to a smaller size in a mortar and pestle and resuspended in 3.6% TCA. The beads were then filtered through […] mesh.
SCD was determined in the desaturase assay buffer. This assay buffer contained 0.1 M Tris buffer, pH 7.2, 2 mM NADH, 4.8 mM ATP, 0.5 mM CoA, 4.8 mM MgCl2, and 0.1% BSA.
1 μl of each compound of Formula I was added to an assay plate by a low volume (0.5-10 μL) multichannel pipette. A DMSO control was also prepared. The microsomes were quickly thawed and added to assay buffer so that a concentration of 0.4 mg/ml was achieved (0.2 mg/ml assay final). 50 μl of the microsome suspension in assay buffer was then added into each well in the compound assay plate, the plate was covered, and the microsomes preincubated with the compounds for 30 minutes on the orbital shaker, 50-75rpm, at room temperature. […]
(Liver microsomes are a subcellular fraction often used to study metabolism.)
One may read the IC50 as the concentration at which inhibition is half-maximal. Low values mean greater potency in that assay, high ones weaker potency in that assay. `O=C(O)c1ccc2nn(Cc3ccc(Cl)c(Cl)c3)c(=O)n2c1` [Compound 1, 2-(3,4-dichlorobenzyl)-3-oxo-2,3-dihydro-[1,2,4]triazolo[4,3-a]pyridine-6-carboxylic acid] came in with an IC50 of 6.2 µM.

Compound `O=C(NCCO)c1ccc2nn(Cc3ccc(Cl)c(Cl)c3)c(=O)n2c1` [Compound 3, 2-(3,4-dichlorobenzyl)-N-(2-hydroxyethyl)-3-oxo-2,3-dihydro-[1,2,4]triazolo[4,3-a]pyridine-6-carboxamide] yielded an IC50 of 0.16 µM.

Turning to `CC(C)(C)OC(=O)Nc1ccc2nn(Cc3ccc(Cl)c(Cl)c3)c(=O)n2c1` [Compound 4, tert-butyl 2-(3,4-dichlorobenzyl)-3-oxo-2,3-dihydro-[1,2,4]triazolo[4,3-a]pyridin-6-ylcarbamate], half-maximal inhibition (IC50) was put at 3.1 µM.

Compound `CCCCCCNC(=O)c1ccc2nn(Cc3ccc(Cl)c(Cl)c3)c(=O)n2c1` [Compound 2, 2-(3,4-dichlorobenzyl)-N-hexyl-3-oxo-2,3-dihydro-[1,2,4]triazolo[4,3-a]pyridine-6-carboxamide] came in with an IC50 of 0.19 µM.

Values taken from patent US8088792B2, “Triazolopyridinone derivatives for use as stearoyl CoA desaturase inhibitors” (Gilead Sciences, Inc., priority 2008, dated 2012).
